Results: publication PMC10686834, “Targeting myeloid chemotaxis to reverse prostate cancer therapy resistance” (Nature, 2023)

Assays:
[1] = test system: LPS induced pulmonary neutrophilia; set-up: method as in AZD5069 Investigator Brochure (IB); details: rat; ref AZD5069 Investigator Brochure (IB); cited from earlier work
monkey = details: in vivo; cited from earlier work
CYP2E1 = test system: CYP2E1; set-up: method as in AZD5069 Investigator Brochure (IB); details: at concentrations of up to 100 μmol/L; ref AZD5069 Investigator Brochure (IB); cited from earlier work
rat = details: in vivo; cited from earlier work
CACO-2 cells = test system: CACO-2 cells; set-up: method as in AZD5069 Investigator Brochure (IB); details: at 0.85 μmol/L, ref AZD5069 Investigator Brochure (IB); cited from earlier work
P-glycoprotein (P-gp) = test system: P-glycoprotein (P-gp); set-up: method as in AZD5069 Investigator Brochure (IB); details: at concentrations of up to 100 μmol/L; ref AZD5069 Investigator Brochure (IB); cited from earlier work
[2] = set-up: method as in AZD5069 Investigator Brochure (IB); details: in vitro and in vivo studies; ref AZD5069 Investigator Brochure (IB); cited from earlier work
[3] = test system: circulating CXCL1, CXCL2, CXCL5, CXCL6, CXCL7 and CXCL8; experiment: Circulating cytokine analyses (Luminex, ELISA) in patient serum; assay type: in vivo, human; details: serial serum samples
Method: Serum samples were collected at baseline, on day 1 of every cycle, and on cycle 1 day 15. CXCL2, CXCL5, CXCL6, CXCL7 and CXCL8 were measured in patient serum (diluted 1:2 except for CXCL7, which was diluted 1:200), then analysed using R&D Systems Luminex discovery assays using the Luminex 200 and interpolated using a five-parameter logistic curve fit. CXCL1 was measured in neat patient serum using the R&D Systems human GROα Quantikine ELISA using the Perkin Elmer Envision 2103 Multilabel plate reader and interpolated using linear regression. The Luminex and ELISA assays were validated to good clinical practice compliance by The ICR and included quality control samples of serum, unspiked or spiked with recombinant protein standard, from healthy volunteer serum in every analytical run. A list of the ELISA reagents is provided in Supplementary Table 9.

[4] = test system: AR activity and AR-V7 signatures; experiment: RNA profiling (HTG EdgeSeq) of paired FFPE tumour biopsies: AR activity and AR-V7 signatures; assay type: in vivo, human; details: paired biopsies with decreased myeloid cell density (seven pairs)
Method: RNA profiling of FFPE tumour biopsies collected before and after starting AZD5069 was carried out by HTG EdgeSeq (HTG Molecular Diagnostics) using the HTG human transcriptome panel containing 19,616 nuclease protection probes (NPPs), including 19,398 gene target-specific 50-nucleotide probes, 100 negative control probes, 92 probes for RNA controls established by the External RNA Control Consortium, 22 probes that measure gDNA and 4 positive control probes. The assay was carried out with a minimum of 11 mm^2 of FFPE tumour micro-dissected sections. The sections were lysed according to the manufacturer’s instructions, and added to a 96-well plate on the HTG EdgeSeq Processor (HTG Molecular Diagnostics) on which a quantitative nuclease protection assay was carried out. The addition of DNA nuclease protection probes (NPPs) was automated and they were allowed to hybridize for 16 hours to the target mRNAs. The excess non-hybridized DNA probes and non-hybridized mRNA were removed by S1 digestion leaving only NPPs hybridized to mRNA. […] After clean-up and quantification by quantitative PCR using the kit KAPA Library Quantification Kit Illumina platforms, the libraries were pooled and sequenced on the NextSeq 500 using a High Throughput 75-cycle v.2.5 kit (Illumina). […] Data were analysed using the HTG EdgeSeq Reveal analysis software. […]

CYP2B6 = test system: CYP2B6; set-up: method as in AZD5069 Investigator Brochure (IB); details: human hepatocytes; ref AZD5069 Investigator Brochure (IB); cited from earlier work
[5] = test system: patients with persistent uncontrolled asthma; set-up: method as in AZD5069 Investigator Brochure (IB); details: asthma study NCT01704495, 161 patients receiving 45 mg BD, 6-month safety analysis set; ref AZD5069 Investigator Brochure (IB); cited from earlier work

C[C@@H](Oc1cc(NS(=O)(=O)N2CCC2)nc(SCc2cccc(F)c2F)n1)[C@@H](O)CO [AZD5069]
effect on LPS induced pulmonary neutrophilia [1]: dose dependent inhibition
NOAEL (monkey): 262.5 mg/kg BD
inhibition of CYP2E1 (CYP2E1): not an inhibitor
tolerated single doses (rat): up to 600 mg/kg
efflux ratio (CACO-2 cells): 57
inhibition of P-glycoprotein (P-gp) (P-glycoprotein (P-gp)): not an inhibitor
genotoxicity [2]: not genotoxic
levels of circulating CXCL1, CXCL2 and CXCL8 after treatment [3]: increased in a dose-dependent manner
levels of circulating CXCL5, CXCL6 and CXCL7 after treatment [3]: did not consistently increase
AR activity and AR-V7 mRNA signatures in tumour biopsies [4]: downregulation of AR activity and AR-V7 signatures
induction of CYP2B6 activity (CYP2B6): concentration dependent induction
patients who discontinued the drug due to neutrophil counts 1x10^9/L [5]: 4
